Conditions: not given

SMILES	melting point [°C]	boiling point [°C]	log10 vapour pressure (mmHg)	log10 Koc (L/kg)	ready biodegradability	log10 Henry constant (atm·m³/mol)	logP	log10 Koa
COC(=O)CCCCCCCCCCC(=O)OC	31.9	–	–	–	–	–	–	–
CC(C)I	-90	89.5	1.63	–	–	–	–	–
CCN(N)c1ccccc1	–	237	–	–	–	–	–	–
C/C=C/C=C/C(=O)OC	15	180	–	–	–	–	–	–
OCCc1ccc(Cl)cc1	–	259	–	–	–	–	–	–
CC(C)N1C(=O)c2ccccc2[N]([Na])S1(=O)=O	–	–	–	1.54	–	–	–	–
CON(C)C(=O)Nc1ccc(Br)cc1	95	–	-5.52	2.1	–	–	–	–
CCCCCCCCCCCCC/C=C/[C@@H](O)[C@@H](N)CO	67	–	–	–	–	–	–	–
NC(=O)c1cccc([N+](=O)[O-])c1	143	312	–	1.95	–	–	–	–
CC(C)c1ccc2ccccc2c1	14.5	268	-2.29	–	–	–	–	–
NNC(=O)Nc1ccccc1	128	–	–	–	–	–	–	–
CCCCCCCCC(C(=O)O)C(=O)O	116	–	–	–	–	–	–	–
CCOC(C)CO (stereo unspecified)	–	140	–	–	–	–	–	–
Cc1ccc(NC(=O)N(C)C)cc1Cl	148	–	-7.44	2.02	not readily biodegradable	–	–	–
Clc1cc2c(Cl)c(Cl)c(Cl)c(Cl)c2c(Cl)c1Cl	–	–	-7.07	–	–	–	–	–
CC(=O)OCCOCCOC(C)=O	18	200	–	–	–	–	–	–
CC[N+](C)(C)CCOC(=O)CCC(=O)OCC[N+](C)(C)CC.[Br-].[Br-]	158	–	–	–	–	–	–	–
N#CCCC#N	54.5	266	-2.11	–	–	–	–	–
CCCCCCCC(=O)NN	88	–	–	–	–	–	–	–
Cc1ccccn1	-66.7	129	1.05	–	readily biodegradable	-5	–	–

SMILES	melting point [°C]	boiling point [°C]	log10 vapour pressure (mmHg)	log10 Koc (L/kg)	ready biodegradability	log10 Henry constant (atm·m³/mol)	logP	log10 Koa
CC1=NN(c2ccc(C)cc2)C(=O)C1	138	–	–	–	–	–	–	–
CCCCCCCC(=O)Oc1c(Br)cc(C#N)cc1Br	45.5	–	-5.32	4	readily biodegradable	–	–	–
CCOC(=O)CCCCCBr	33	–	–	–	–	–	–	–
CC(C)(Sc1cc(C(C)(C)C)c(O)c(C(C)(C)C)c1)Sc1cc(C(C)(C)C)c(O)c(C(C)(C)C)c1	125	–	–	–	–	–	–	–
CCCCC(C=O)CC (stereo unspecified)	–	163	0.255	–	–	–	–	–
CCCOC/C(=N\c1ccc(Cl)cc1C(F)(F)F)n1ccnc1	63.5	–	-5.85	–	–	–	–	–
CCOC(=O)c1ccccc1Cl	–	243	–	–	–	–	–	–
COC(=O)C(C)N(C(=O)Cc1ccccc1)c1c(C)cccc1C (stereo unspecified)	79	–	-5	3.54	–	–	–	–
CC(C)CCCC(C)(C)C	-105	149	–	–	–	–	–	–
SC(c1ccccc1)(c1ccccc1)c1ccccc1	105	–	–	–	–	–	–	–
Clc1ccc(Oc2ccccc2)cc1Cl	–	–	-3.19	–	–	–	–	–
C=C(C)[C@@H]1CC[C@@H](C)C[C@@H]1O	78	–	–	–	–	–	–	–
O=C(O)C=Cc1cccc(C(F)(F)F)c1	136	–	–	–	–	–	–	–
CCc1nc(N)nc(N)c1-c1ccc(Cl)cc1	234	–	–	–	–	–	–	–
Brc1cc(Br)c(Oc2cc(Br)c(Br)cc2Br)c(Br)c1	–	–	–	–	–	–	7.82	–
O=C(Cl)c1cccc(C(F)(F)F)c1	–	187	–	–	–	–	–	–
CCCCn1c(=O)c2c(ncn2C)n(C)c1=O	108	–	–	–	–	–	–	–
COc1cccc(OC)c1C(C)=O	69	–	–	–	–	–	–	–
CC1=C[C@H](O)CC(C)(C)[C@H]1/C=C/C(C)=C/C=C/C(C)=C/C=C/C=C(C)/C=C/C=C(C)/C=C/C1=C(C)C[C@@H](O)CC1(C)C	196	–	–	–	–	–	–	–
O=[N+]([O-])c1ccccc1O	44.8	216	-0.947	–	not readily biodegradable	-4.89	–	–

SMILES	melting point [°C]	boiling point [°C]	log10 vapour pressure (mmHg)	log10 Koc (L/kg)	ready biodegradability	log10 Henry constant (atm·m³/mol)	logP	log10 Koa
C=C(Br)Br	–	92	–	–	–	–	–	–
O=C(OC1CCCCC1)C(=O)OC1CCCCC1	43.5	–	–	–	–	–	–	–
O=S1OC[C@@H]2[C@H](CO1)[C@]1(Cl)C(Cl)=C(Cl)[C@@]2(Cl)C1(Cl)Cl (stereo partly specified)	–	–	–	–	–	–	–	8.64
C#CCCCCCCCCCCCCCCCC	22.5	313	–	–	–	–	–	–
O=C(OC[C@H]1O[C@@H](O)[C@H](O)[C@@H](O)[C@@H]1O)c1ccccc1	121	–	–	–	–	–	–	–
O=c1[nH]c(=O)n([C@H]2C[C@H](O)[C@@H](CO)O2)cc1F	150	–	–	–	–	–	–	–
Nc1ncnc2c1ncn2[C@@H]1O[C@H](CO)C[C@H]1O	226	–	–	–	–	–	–	–
CCOC(=O)N1CCNCC1	–	237	–	–	–	–	–	–
O=C(Cl)c1ccccc1F	4	206	–	–	–	–	–	–
COc1cc2cc(c1Cl)N(C)C(=O)C[C@H](OC(=O)[C@H](C)N(C)C(C)=O)[C@]1(C)O[C@H]1[C@H](C)[C@@H]1C[C@@](O)(NC(=O)O1)C(OC)C=CC=C(C)C2 (stereo partly specified)	172	–	–	–	–	–	–	–
FCCCF	–	41.6	–	–	–	–	–	–
COC(=O)c1cccc(N)c1	39	–	–	–	–	–	–	–
C=C(Cl)C#N	-65	88.5	–	–	–	–	–	–
O=P1(N(CCCl)CCCl)NCCCO1 (stereo unspecified)	51.5	–	–	–	not readily biodegradable	–	–	–
FC(F)(F)c1ccc(C(F)(F)F)cc1	–	116	–	–	–	–	–	–
Oc1cc(Cl)c(Cl)c(Cl)c1	101	275	–	3.56	–	–	–	–
Oc1cc(Cl)cc(Cl)c1Cl	62	–	-1.66	3.61	–	–	–	–
COc1cccc(Cl)c1Cl	32	–	–	–	–	–	–	–

Same assay, conditions: fish

SMILES	log10 biotransformation half-life (days)	log10 BCF
Clc1cc(Cl)c(Cl)c(-c2ccccc2Cl)c1	2.8	–
COP(=O)(OC)OC(=CCl)c1cc(Cl)c(Cl)cc1Cl	-1.02	1.61
NC(=O)c1c(Cl)c(Cl)c(Cl)c(Cl)c1C(=O)O	–	0.49
FC(F)(Cl)Cl	–	0.79
CC(C)c1ccc2ccccc2c1	1	–
Brc1cc(Br)c(Oc2cc(Br)c(Br)cc2Br)c(Br)c1	2.03	6.15
O=[N+]([O-])c1ccccc1O	–	1.34
